IC90 data for 24 molecules are collected here from patent US6004957A, “Sulfonamide inhibitors of aspartyl protease” (Vertex Pharmaceuticals, Incorporated, priority 1998, dated 1999).

The test system of this test is HIVIIIb in CCRM-CEM cells. Briefly: Anti-viral potency in CCRM-CEM cells acutely infected with HIVIIIb (method of Meek et al.), extracellular p24 antigen. Format: cell-based, HIV-1. The settings on record: Human immunodeficiency virus 1, HIV replication, Table VIII, read-out: IC90 Range. An excerpt: As discussed above, the novel compounds of the present invention are excellent ligands for aspartyl proteases, particularly HIV-1 and HIV-2 proteases. Accordingly, these compounds are capable of targeting and inhibiting late stage events in HIV replication, i.e., the processing of the viral polyproteins by HIV encoded proteases. […] Because aspartyl protease is essential for the production of mature virions, inhibition of that processing effectively blocks the spread of virus by inhibiting the production of infectious virions, particularly from chronically infected cells. […] Other anti-viral assays have confirmed the potency of these compounds.
Compounds of formula I were tested for their antiviral potency in several virological assays. In the first assay, the compounds were added as a solution in dimethylsulfoxide (DMSO) to a test cell culture of CCRM-CEM cells, a strain of CD4^+ human T-cell lymphoma cells, previously acutely infected with HIVIIIb using standard protocols (see Meek, T. D. et al., "Inhibition of HIV-1 protease in infected T-lymphocytes by synthetic peptide analogues", Nature, 343, p. 90 (1990). Preferred compounds are those which are able to inhibit 90% of viral infectivity at a concentration of 1 μM or less. More preferred compounds are those which are able to inhibit 90% of viral infectivity at a concentration of 100 nM or less.
The effect of the compounds on inhibiting the replication of the virus was measured by determining the HIV extracellular p24 antigen concentration using a commercial enzyme immunoassay (obtained from Coulter Corporation, Hialeah, Fla.).

A value given as a limit tells only on which side of the number the result lay.

As a reminder, the IC90 is the concentration needed for an effect of 90%. As for `CC(C)CN(C[C@@H](O)[C@H](Cc1ccccc1)NC(=O)OC[C@@H]1COC(=O)N1)S(=O)(=O)c1ccc(F)cc1` [Compound 109, 4-Fluoro-N-(2-(syn)-hydroxy-3-((2-oxazolidon-(S)-4-yl)-methoxycarbonylamino)-4-(S)-phenyl-butyl)-N-isobutyl-benzenesulfonamide], the IC90 was in the range of 101 to 1000 nM.

With `CC(C)CN(C[C@@H](O)[C@H](Cc1ccccc1)NC(=O)O[C@H]1CCOC1)S(=O)(=O)c1ccoc1` [Compound 113], the IC90 fell in the range of 101 to 1000 nM.

`O=C1N[C@H](COC(=O)N[C@@H](Cc2ccccc2)[C@H](O)CN(CC2CCCC2)S(=O)(=O)c2ccc(Cl)cc2)CO1` [Compound 139, 4Chloro-N-cyclopentylmethyl-N-(2-(syn)-hydroxy-3-((2-oxazolidon-4-(S)-yl-methyl)-oxycarbonylamino)-4-phenyl-butyl)-benzenesulfonamide]: the 90% effect concentration (IC90) fell in the range of 101 to 1000 nM.

`O=C(N[C@@H](Cc1ccccc1)[C@H](O)CN(CC1CCCCC1)S(=O)(=O)c1ccc(F)cc1)O[C@H]1CCOC1` [Compound 159, N-Cyclohexylmethyl-4-fluoro-N-((2 syn,3S)-2-hydroxy-4-phenyl-3-((S)-tetrahydrofuran-3-yloxycarbonylamino)-butyl)-benzenesulfonamide]: the IC90 is 101 to 1000 nM.

As to `CC(C)CN(C[C@@H](O)[C@H](Cc1ccccc1)NC(=O)[C@H](CC(N)=O)NC(=O)c1ccc2ccccc2n1)S(=O)(=O)c1cccc2nonc12` [Compound 20, (S)-N-1-(3-((Benzo(1,2,5)oxadiazole-4-sulfonyl)-isobutyl-amino)-(1S,2 syn)-1-benzyl-2-hydroxy-propyl)-2-((quinoline-2-carbonyl)-amino)-succinamide], the concentration for an effect of 90% (IC90) was below 100 nM.

`CC(C)CN(C[C@@H](O)[C@H](Cc1ccccc1)NC(=O)OCc1cccnc1)S(=O)(=O)c1ccc2nonc2c1` [Compound 82]: the IC90 fell in the range of 1000 to 10000 nM.

With `CC(=O)Nc1nc(C)c(S(=O)(=O)N(CC(C)C)C[C@@H](O)[C@H](Cc2ccccc2)NC(=O)[C@H](CC(N)=O)NC(=O)c2ccc3ccccc3n2)s1` [Compound 18], the concentration for an effect of 90% (IC90) fell in the range of 101 to 1000 nM.

Take `C=CCOC(=O)N[C@@H](Cc1ccccc1)[C@H](O)CN(CC(C)C)S(=O)(=O)c1ccc(NC(C)=O)cc1` [Compound 27]: the 90% effect concentration (IC90) lay within 1000 to 10000 nM.

For `O=C(N[C@@H](Cc1ccccc1)[C@H](O)CN(CC1CCCC1)S(=O)(=O)c1ccc(O)cc1)OCc1cccnc1` [Compound 166, N-cyclopentylmethyl-4-hydroxy-N-((2 syn,3S)-2-hydroxy-4-phenyl-3-(pyridin-3-yl-methoxycarbonylamino)-butyl)-benzenesulfonamide], the IC90 is below 100 nM.

`CC(C)CN(C[C@@H](O)[C@H](Cc1ccccc1)NC(=O)OCc1ccccc1)S(=O)(=O)c1ccc2nonc2c1` [Compound 65]: the concentration for an effect of 90% (IC90) lay in the range of 1000 to 10000 nM.

With `CC(C)CN(C[C@@H](O)[C@H](Cc1ccccc1)NC(=O)O[C@H]1CCOC1)S(=O)(=O)c1ccc(F)cc1` [Compound 35, 4-Fluoro-N-((2 syn,3S)-2-hydroxy-4-phenyl-3-((S)-tetrahydrofuran-3-yloxycarbonylamino)-butyl)-N-isobutyl-benzenesulfonamide], the IC90 was 101 to 1000 nM.

As for `CC(=O)Nc1ccc(S(=O)(=O)N(CC(C)C)C[C@@H](O)[C@H](Cc2ccccc2)NC(=O)OC2CCOC2)cc1` (stereo partly drawn) [Compound 86, N-(4-(((2 syn,3S)-2-Hydroxy-4-phenyl-3-((R)-tetrahydrofuran-3-yloxycarbonylamino)-butyl)-isobutyl-sulfamoyl-phenyl)-acetamide and N-(4-(((2 syn,3S)-2-Hydroxy-4-phenyl-3-((S)-tetrahydrofuran-3-yloxycarbonylamino)-butyl)-isobutyl-sulfamoyl)-phenyl)-acetamide], the IC90 was 101 to 1000 nM.

With `COc1ccc(S(=O)(=O)N(CC(C)C)C[C@@H](O)[C@H](Cc2ccccc2)NC(=O)O[C@H]2CCOC2)cc1` [Compound 100, N-((2 syn,3S)-2-Hydroxy-4-phenyl-3-((S)-tetrahydrofuran-3-yloxycarbonylamino)-butyl)-N-isobutyl-4-methoxy-benzenesulfonamide], the IC90 was below 100 nM.

Turning to `CC(=O)Nc1ccc(S(=O)(=O)N(CC(C)C)C[C@@H](O)[C@H](Cc2ccccc2)NC(=O)[C@@H](NC(=O)OCc2ccccn2)C(C)C)cc1` [Compound 22], the IC90 fell in the range of 101 to 1000 nM.

As to `CC(=O)Nc1ccc(S(=O)(=O)N(CC(C)C)C[C@@H](O)[C@H](Cc2ccccc2)NC(=O)[C@H](CC(N)=O)NC(=O)c2ccc3ccccc3n2)cc1F` [Compound 15, (S)-N-1-(3-((4-Acetylamino-3-fluoro-benzenesulfonyl)-isobutyl-amino)-(1S,2 syn)-1-benzyl-2-hydroxy-propyl)-2-((quinoline-2-carbonyl)-amino)-succinamide], the IC90 is below 100 nM.

`C=C(COC)COC(=O)N[C@@H](Cc1ccccc1)[C@H](O)CN(CC1CCCC1)S(=O)(=O)c1ccc(OC)cc1` [Compound 162]: the IC90 was in the range of 1000 to 10000 nM.

Consider `CC(C)CN(C[C@@H](O)[C@H](Cc1ccccc1)NC(=O)O[C@H]1CCOC1)S(=O)(=O)c1cccc(Cl)c1` [Compound 138, 3-Chloro-N-((2 syn,3S)-2-hydroxy-4-phenyl-3-((S)-tetrahydrofuran-3-yloxycarbonylamino)-butyl)-N-isobutyl-benzenesulfonamide], for which the 90% effect concentration (IC90) lay within 101 to 1000 nM.

With `CC(C)CN(C[C@@H](O)[C@H](Cc1ccccc1)NC(=O)O[C@H]1CCOC1)S(=O)(=O)c1ccc(F)c(F)c1` [Compound 124], the concentration for an effect of 90% (IC90) is 10000 to 40000 nM.

With `CC(=O)Nc1ccc(S(=O)(=O)N(CC2CCCC2)C[C@@H](O)[C@H](Cc2ccccc2)NC(=O)OCc2cccnc2)cc1` [Compound 147, N-(4-(Cyclopentylmethyl-((2 syn,3S)-2-hydroxy-4-phenyl-3-(pyridin-3-yl-methoxycarbonylamino)-butyl)-sulfamoyl)-phenyl)-acetamide], the concentration for an effect of 90% (IC90) was 101 to 1000 nM.

Take `CCOC(=O)N[C@@H](Cc1ccccc1)[C@H](O)CN(CC(C)C)S(=O)(=O)c1ccc(Cl)c(Cl)c1` [Compound 119]: the IC90 lay in the range of 1000 to 10000 nM.

Turning to `CC(=O)Nc1cc(S(=O)(=O)N(CC(C)C)C[C@@H](O)[C@H](Cc2ccccc2)NC(=O)O[C@H]2CCOC2)ccc1F` [Compound 88, N-(2-Fluoro-5-(((2 syn,3S)-2-hydroxy-4-phenyl-3-((S)-tetrahydrofuran-3-yloxycarbonylamino)-butyl)-isobutyl-sulfamoyl)-phenyl)-acetamide], the concentration for an effect of 90% (IC90) was 101 to 1000 nM.

Consider `CC(=O)Nc1cc(S(=O)(=O)N(CC(C)C)C[C@@H](O)[C@H](Cc2ccccc2)NC(=O)[C@H](CC(N)=O)NC(=O)c2ccc3ccccc3n2)ccc1F` [Compound 16, (S)-N-1-(3-((3-Acetylamino-4-fluoro-benzenesulfonyl)-isobutyl-amino)-(1S,2 syn)-1-benzyl-2-hydroxy-propyl)-2-((quinoline-2-carbonyl)-amino)-succinamide], for which the IC90 fell in the range of 101 to 1000 nM.

For `C=CCOC(=O)N[C@@H](Cc1ccccc1)[C@H](O)CN(CC(C)C)S(=O)(=O)c1ccc(Cl)c(Cl)c1` [Compound 81], the concentration for an effect of 90% (IC90) fell in the range of 1000 to 10000 nM.

`CC(C)CN(C[C@@H](O)[C@H](Cc1ccccc1)NC(=O)O[C@H]1CCOC1)S(=O)(=O)c1ccc([N+](=O)[O-])cc1` [Compound 167, N-((2 syn,3S)-2-Hydroxy-4-phenyl-3-((S)-tetrahydrofuran-3-yloxycarbonylamino)-butyl)-N-isobutyl-4-nitro-benzenesulfonamide]: the 90% effect concentration (IC90) was 101 to 1000 nM.
